According to US20160312240A1, “MODIFIED PYR/PYL RECEPTORS ACTIVATED BY ORTHOGONAL LIGANDS” (The Regents of the University of California, priority 2010, published 2016):

Columns and labels:
[1] = tested on: control lines (Columbia wild-type; wild-type PYL2 overexpression line); assay: Seedling germination/growth on fenhexamid; format: in vivo, Arabidopsis; conditions: 100 μM fenhexamid, germinated in the dark, scored two days post-imbibition, FIG. 4
Excerpt: (§1) FIG. 4. Characterization of seedling responses to fenhexamid in 35S::GFP-PYL2 K64R, Y124H, M164I, V67I, V114I transgenic plants. […] Shown are segregating GFP-expressing T2 seedlings from primary transgenic plants (T1). Columbia is the wild-type background and is non-transgenic. Two independent PYL2 K64R, Y124H, M164I, V67I, V114I (“PYL2 MUT”) transgenic lines were characterized in addition to a wild-type PYL2 overexpression line. Seeds from respective lines were germinated in the dark on media containing 100 μM fenhexamid and scored two days post-imbibition.
(§2) To investigate if the fenhexamid response observed in yeast and in vitro experiments would function in plants, transgenic 35S::GFP-PYL2 and 35S::GFP-PYL2^K64R,Y124H,M164I,V67I,V114I plants were constructed using standard molecular cloning methods into a modified version of pEGAD (Cutler et al., Proc Natl Acad Sci U.S.A. 97:3718-3723 (2000)) in which a 6×-histidine tag was added onto the N-terminus of GFP. Transgenic plants were made using the floral-dip method and primary transgenics (T1) identified by screening seedlings by epi-fluorescence using a Leica GFP dissecting microscope. The GFP^+ transgenic plants were grown to maturity and T2 seed collected for further analyses. […]

[2] = tested on: 35S::GFP-PYL2 K64R,Y124H,M164I,V67I,V114I transgenic plants; assay: Seedling germination/growth on fenhexamid; format: in vivo, Arabidopsis; conditions: 100 μM fenhexamid; T2 seedlings expressing mutant PYL2; FIG. 4
Excerpt: as §1, §2

[3] = tested on: wild-type Columbia plants; assay: Water loss from detached aerial rosettes; format: in vivo, Arabidopsis; conditions: 100 μM spray, approximately 16 hours pretreatment, FIG. 7
Experimental: FIG. 7. […] Columbia plants were treated with control, 100 μM fenhexamid, or 100 μM ABA containing solutions. Plants were treated as described in the Examples section below and water loss from aerial rosettes was measured after detachment.
Transgenic or control (wild-type) plants were grown under a 16 hr light/8 hr dark cycle for 3 weeks and then treated with either 100 μM (+)-ABA, 100 μM fenhexamid, or control (containing 0.1% Tween-20, 0.1% DMSO). ABA treatments were conducted as a positive control. The plants were sprayed in the evening prior to conducting water loss experiments. The next morning, approximately 16 hours post-treatment, the above-ground rosettes of the experimental samples were collected and transferred to weighing dishes, 8 plants per measured sample, and maintained under ˜90-100 μEinstein/m^2 fluorescent light illumination. Four groups of eight plants were measured per time point at 20 min intervals. The experiments were repeated three times over the course of an eight-week interval. […] It should be noted, however, that ABA can activate all of the PYR/PYL receptors in a plant genome (at least 13 in Arabidopsis), while fenhexamid is selectively activating a single engineered receptor, PYL2^K64R,Y124H,M164I,V67I,V114I. […]

[4] = tested on: 35S::GFP-PYL2 K64R,Y124H,M164I,V67I,V114I transgenic plants; assay: Quantitative RT-PCR of ABA reporter genes in seedlings; format: in vivo, Arabidopsis; conditions: 100 μM fenhexamid for 6 hours, liquid culture; two independent transgenic lines; FIG. 5
Experimental: FIG. 5. Characterization of seedling transcriptional responses to fenhexamid in 35S::GFP-PYL2 K64R, Y124H, M164I, V67I, V114I transgenic plants. GFP-expressing T2 seedlings from respective lines were isolated after germination on petri plates and pre-screened by epi-fluorescence microscopy and subsequently grown in liquid media culture for 7 days, after which seedlings were treated with either 100 μM fenhexamid or control (0.1% DMSO) for 6 hours. RNA was subsequently isolated from the samples and utilized in quantitative RT-PCR experiments using three well-characterized ABA responsive transcripts (as described previously, Park et al., 2009). The primer sequences used for RT-PCR analysis were obtained from Roche and synthesized by Invitrogen. Quantitative RT-PCR was performed using SybrGreen on a BioRad CFX 96 real-time PCR instrument. mRNA copy number is expressed as copy number per nanogram total RNA. Data was normalized using an ACT2 gene. Copy number was established using a standard curve of known concentration of the target genes. […]
To further investigate ABA-response activation, we next tested GFP^+ transgenics (T2 segregants) and appropriate controls for activation of 3 ABA reporter genes (P5CS1, RD29A, and NCED3) in response to exposure to fenhexamid in liquid culture using quantitative RT-PCR methods. […]

[5] = molecular target: T1, PYR1 mutant 27-36 (Arabidopsis thaliana, UniProt O49686, E12G/E43G/I110S/K59R/N133D); assay: Yeast two-hybrid LacZ reporter assay (pAD-HAB1 YRG-2 strain); format: cell-based; conditions: 25 and 50 μM (applied 1-50 μM)
T1 construct: expressed in transfected cells; host or cells: S. cerevisiae YRG-2 expressing pAD-HAB1
Experimental: (§3) Plasmids for three representative mutant clones (27-9, 27-18, and 27-36) were isolated from the primary yeast cells and transformed into a pAD-HAB1 expressing YRG-2 reporter strain (Park et al., Science 324:1068-1071 (2009)) in which Ga14 drives expression of a LacZ reporter gene to allow colorimetric indication of agonist response. Fenhexamid was applied at concentrations of 1, 5, 10, 25, and 50 μM. […] Mutant 27-36 was responsive to fenhexamid at 25 and 50 μM concentrations.

[6] = molecular target: T2, PYR1 mutant 27-18 (Arabidopsis thaliana, UniProt O49686, K59R/S47P/Y120H); assay: as above; format: cell-based; conditions: 1, 5, 10, 25, and 50 μM
T2 construct: expressed in transfected cells; host or cells: S. cerevisiae YRG-2 expressing pAD-HAB1
Experimental: as §3

[7] = molecular target: T3, PYR1 mutant 27-9 (Arabidopsis thaliana, UniProt O49686, E153G/K59R/P42S/Y120C); assay: as above; format: cell-based
T3 construct: expressed in transfected cells; host or cells: S. cerevisiae YRG-2 expressing pAD-HAB1
Experimental: as §3

T3 sequence (O49686 whole entry P42S/K59R/Y120C/E153G): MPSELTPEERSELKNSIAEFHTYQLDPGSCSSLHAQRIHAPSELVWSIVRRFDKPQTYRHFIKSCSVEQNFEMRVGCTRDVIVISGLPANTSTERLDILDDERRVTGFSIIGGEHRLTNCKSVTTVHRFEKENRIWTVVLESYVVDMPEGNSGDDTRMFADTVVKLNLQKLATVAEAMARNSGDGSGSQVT
T3 sequence (Q9CAJ0 whole entry, further chain): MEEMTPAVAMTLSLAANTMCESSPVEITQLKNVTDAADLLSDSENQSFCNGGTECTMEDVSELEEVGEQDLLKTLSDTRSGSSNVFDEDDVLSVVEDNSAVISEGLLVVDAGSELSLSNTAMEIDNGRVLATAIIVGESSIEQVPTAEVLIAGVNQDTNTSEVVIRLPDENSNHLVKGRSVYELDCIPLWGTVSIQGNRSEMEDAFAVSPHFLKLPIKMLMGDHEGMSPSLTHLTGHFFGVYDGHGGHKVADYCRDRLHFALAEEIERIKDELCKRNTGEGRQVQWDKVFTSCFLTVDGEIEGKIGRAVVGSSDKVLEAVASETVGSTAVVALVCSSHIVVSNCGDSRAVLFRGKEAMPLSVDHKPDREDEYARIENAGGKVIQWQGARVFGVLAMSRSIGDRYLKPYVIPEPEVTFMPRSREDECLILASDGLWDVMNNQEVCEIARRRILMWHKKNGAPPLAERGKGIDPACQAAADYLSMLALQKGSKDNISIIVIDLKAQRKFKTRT
T2 sequence (O49686 whole entry S47P/K59R/Y120H): as the sequence (O49686 whole entry P42S/K59R/Y120C/E153G) above, with S42P, S47P, C120H, G153E counted along it
T2 sequence (Q9CAJ0 23-511, stated change not applied, further chain): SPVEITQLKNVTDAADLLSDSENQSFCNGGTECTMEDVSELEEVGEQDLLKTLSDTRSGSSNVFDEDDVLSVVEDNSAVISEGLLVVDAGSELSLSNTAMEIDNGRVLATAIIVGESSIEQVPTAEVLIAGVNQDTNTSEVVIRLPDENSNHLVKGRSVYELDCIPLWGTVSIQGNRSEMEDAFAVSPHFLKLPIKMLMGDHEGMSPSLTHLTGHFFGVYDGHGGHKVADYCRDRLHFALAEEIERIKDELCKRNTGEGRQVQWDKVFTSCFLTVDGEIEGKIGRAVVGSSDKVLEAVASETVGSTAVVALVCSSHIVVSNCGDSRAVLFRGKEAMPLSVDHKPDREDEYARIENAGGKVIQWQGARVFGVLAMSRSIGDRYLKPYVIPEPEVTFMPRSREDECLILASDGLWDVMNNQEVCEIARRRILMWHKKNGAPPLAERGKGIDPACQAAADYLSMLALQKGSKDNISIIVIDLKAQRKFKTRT
T1 sequence (Q9CAJ0 23-511): as the sequence (Q9CAJ0 23-511, stated change not applied, further chain) above
T1 sequence (O49686 whole entry E12G/E43G/K59R/I110S/N133D): as the sequence (O49686 whole entry P42S/K59R/Y120C/E153G) above, with E12G, S42P, E43G, I110S, C120Y, N133D, G153E counted along it

## CC1(C(=O)Nc2ccc(O)c(Cl)c2Cl)CCCCC1 [fenhexamid]
[1]
  Post-germination arrest on fenhexamid: do not
[2]
  Seedling growth on fenhexamid: strong growth inhibition
[3]
  Water loss from detached rosettes: does not affect water loss
[4]
  Activation of 3 ABA reporter genes (P5CS1, RD29A, and NCED3): substantial induction
[5]
  Response to fenhexamid (LacZ staining): responsive
[6]
  Response to fenhexamid (LacZ staining): strongly responded
[7]; 1 μM
  Response to fenhexamid (LacZ staining): weakly positive
[7]; 5, 10, 25, and 50 μM
  Response to fenhexamid (LacZ staining): strongly responded
